Measurements reported in PubChem BioAssay (NCI).
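Each compound was tested at five concentrations against cells in 96-well plates for 48 hours. TGI marks complete inhibition of growth.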

Assays:
Assay in all cases: NCI-60 cell line screen, 48 h
COLO 205 colon = system: COLO 205 colon
RXF 393 renal = system: RXF 393 renal
CAKI-1 renal = system: CAKI-1 renal
UACC-62 melanoma = system: UACC-62 melanoma
SF-295 CNS = system: SF-295 CNS
KM12 colon = system: KM12 colon
MALME-3M melanoma = system: MALME-3M melanoma
HT29 colon = system: HT29 colon
MDA-MB-231 breast = system: MDA-MB-231 breast
A549 NSCLC = system: A549 NSCLC
RPMI-8226 leukemia = system: RPMI-8226 leukemia
BT-549 breast = system: BT-549 breast
MDA-MB-435 = system: MDA-MB-435
IGROV1 ovarian = system: IGROV1 ovarian
HL-60(TB) leukemia = system: HL-60(TB) leukemia
OVCAR-4 ovarian = system: OVCAR-4 ovarian
NCI-H226 lung = system: NCI-H226 lung
HCT-116 colon = system: HCT-116 colon
OVCAR-8 ovarian = system: OVCAR-8 ovarian
UACC-257 melanoma = system: UACC-257 melanoma
SK-MEL-5 melanoma = system: SK-MEL-5 melanoma
NCI/ADR-RES ovarian = system: NCI/ADR-RES ovarian
CCRF-CEM leukemia = system: CCRF-CEM leukemia
UO-31 renal = system: UO-31 renal
M14 melanoma = system: M14 melanoma
SK-MEL-28 melanoma = system: SK-MEL-28 melanoma
HCC-2998 colon = system: HCC-2998 colon
K-562 leukemia = system: K-562 leukemia
HOP-62 NSCLC = system: HOP-62 NSCLC
SK-OV-3 ovarian = system: SK-OV-3 ovarian
EKVX NSCLC = system: EKVX NSCLC
MCF7 breast = system: MCF7 breast
SN12C renal = system: SN12C renal
SR leukemia = system: SR leukemia
PC-3 prostate = system: PC-3 prostate
MOLT-4 leukemia = system: MOLT-4 leukemia
HCT-15 colon = system: HCT-15 colon
SNB-19 CNS = system: SNB-19 CNS
NCI-H460 lung = system: NCI-H460 lung
SF-268 CNS = system: SF-268 CNS
DU-145 prostate = system: DU-145 prostate
A498 renal = system: A498 renal
U251 CNS = system: U251 CNS
HS 578T breast = system: HS 578T breast
MDA-N = system: MDA-N
LOX IMVI melanoma = system: LOX IMVI melanoma
ACHN renal = system: ACHN renal
OVCAR-5 ovarian = system: OVCAR-5 ovarian
SK-MEL-2 melanoma = system: SK-MEL-2 melanoma
T-47D breast = system: T-47D breast
SW-620 colon = system: SW-620 colon
NCI-H23 lung = system: NCI-H23 lung
HOP-92 NSCLC = system: HOP-92 NSCLC
OVCAR-3 ovarian = system: OVCAR-3 ovarian
SNB-75 CNS = system: SNB-75 CNS
786-0 renal = system: 786-0 renal
TK-10 renal = system: TK-10 renal
SF-539 CNS = system: SF-539 CNS
NCI-H522 lung = system: NCI-H522 lung

Measured: TGI

CC(=O)C(CN1CCCCC1)C(c1ccccc1)c1c(O)c2ccccc2oc1=O (centres undefined)
> 100 µM: all assays above
